≈ marks a conversion by molar mass, not a printed value. Where “and” joins values, the source holds several entries; their conditions need not be identical. Equal entries are not always repeated. Where two headings read alike, the source gives them in different places.
Columns and labels:
[1] = test system: A2780 human ovarian carcinoma cell line; experiment: Cytotoxicity (growth inhibition) on A2780 cells with or without BSO pretreatment; assay type: cell-based
Protocol: (§1) Further evidence of the relevance of GSH levels for the cytotoxicity of the compounds of formula (I) has been obtained by determining the influence of prior treatment with BSO (L-S.R buthionine sulphoximine) on the susceptibility of A2780 human ovarian cells to their cytotoxic and apoptotic effect.
(§2) The cytotoxic activity was determined on A2780 human ovarian carcinoma cell line.
(§3) The cytotoxic activity was determined against exponentially growing cells. A2780 cells were seeded in 6 well-plates at concentration of 100,000 cells/ml for 2 ml and incubated for 24 h with the GSH inhibitor BSO and finally exposed to different concentrations of PNU 166196 (untreated cells were incubated with the medium only).
(§4) After 24 h treatment with the drug, cell growth inhibition was evaluated on the monolayer cells whereas the floating cells were used for morphology evaluation.

[2] = test system: A2780 human ovarian carcinoma cell line; experiment: Apoptotic effect (cells with apoptotic morphology, fluorescence microscopy) on A2780 cells with or without BSO pretreatment; assay type: cell-based
Protocol: as §1, §2, §3, §4
Apoptosis was evaluated by fluorescence microscopy. At the end of the treatment, floating cells were collected, washed in PBS, fixed in 70% ice-cold ethanol and stored at −20° C. until analysis (5 days max.). Cells were then centrifuged and the pellets were stained with 50 μg/ml propidium iodide, 0.001% Nonidet P40 and 60 U/ml Rnase and stored in the dark for 30 minutes at 37° C. Cells were centrifuged and the pellets were resuspended in […]. At least 600 cells randomly chosen from 2 smears independently prepared were examined for their nuclear morphology changes (chromatin condensation and DNA fragmentation) using a fluorescence microscope [see Int. J. Cancer 65:491–497 (1996)]. All the experiments were carried out twice. Results are reported per the enclosed table II and comments thereof.

[3] = test system: L1210/L-PAM cells (melphalan resistant murine leukemia, high GSH); experiment: cells; conditions: for IC50: Mus musculus, L1210/LPAM, 48 h, read-out: Cytotoxicity IC50; for Cytotoxicity on L1210/L-PAM cells in respect to L1210 cells: comparison of IC50 on the two cell lines
Protocol: The cytotoxic activity was determined on L1210 murine lymphocytic leukemia cell line and on the L-PAM resistant cell subline L1210/L-PAM. Cells were grown in vitro as stabilized suspension cultures.L1210 cells were maintained in RPMI 1640 medium containing β-mercaptoethanol (10 μM). L1210/L-PAM cells were maintained in RPMI 1640 medium containing β-mercaptoethanol (50 μM). All culture media (Biowhittaker, UK) were supplemented with 10% Fetal Calf Serum (Biological Industries, Israel) and 2 mM L-glutamine (Biowhittaker, UK).
The cytotoxic activity was determined against exponentially growing cells. L1210 and L1210/L-PAM cells were seeded in 24 well-plates at concentration of 50,000 cells/ml and immediately treated for 48 h with the drug.
The inhibition of cell growth was evaluated by counting surviving cells with a Coulter Counter. The antiproliferative activity of drugs was calculated from dose-response curves and expressed as IC50 (concentration inhibiting 50% cell growth in treated cultures relative to untreated controls). All the experiments were carried out twice.

[4] = test system: L1210 murine lymphocytic leukemia cell line; experiment: Cytotoxic activity (cell growth inhibition, counting surviving cells) on L1210; assay type: cell-based; conditions: Mus musculus, read-out: Cytotoxicity IC50
Protocol: The cytotoxic activity was determined against exponentially growing cells.
All the experiments were carried out twice.

[5] = A2780, BSO alone (dose printed MM)
[6] = L1210 cells (GSH 7.7 nmole/10^6 cells), 48 h incubation

`CCCCS(=N)(=O)CCC(N)C(=O)O` [BSO, L-S.R buthionine sulphoximine, reference compound] showed a Growth inhibition % [1, 5] of 2.5 ± 0.2% and an Apoptosis % [2, 5] of 0%.

For `N[C@@H](Cc1ccc(N(CCCl)CCCl)cc1)C(=O)O` [L-PAM, melphalan], the IC50 [3] was 8.1 µg/mL (≈ 26.5 µM), the “Cytotoxicity on L1210/L-PAM cells in respect to L1210 cells” value [3] was “lower” and the IC50 ([4]; L1210, 48 h) was 1.65 µg/mL (≈ 5.41 µM).

In the case of `C=C(Br)C(=O)Nc1cc(C(=O)Nc2cc(C(=O)Nc3cc(C(=O)Nc4cc(C(=O)NCCC(=N)N)n(C)c4)n(C)c3)n(C)c2)n(C)c1.Cl` [PNU 151807, N-(5-{[(5-{[(5-{[(3-amino-3-iminopropyl)amino]carbonyl}-1-methyl-1H-pyrrol-3-yl)amino]carbonyl}-1-methyl-1H-pyrrol-3-yl)amino]carbonyl}-1-methyl-1H-pyrrol-3-yl)-4-[(2-bromoacryloyl)amino]-1-methyl-1H-pyrrole-2-carboxamide hydrochloride], the IC50 [3] is reported as 0.00026 µg/mL and the IC50 [4, 6] is reported as 0.00086 µg/mL.

With `C=C(Br)C(=O)Nc1cc(C(=O)Nc2cc(C(=O)Nc3cc(C(=O)Nc4cc(C(=O)NCCNC(=N)N)n(C)c4)n(C)c3)n(C)c2)n(C)c1.Cl` [PNU 166196, N-(5-{[(5-{[(5-{[(2-{[amino(imino)methyl]amino}ethyl)amino]carbonyl}-1-methyl-1H-pyrrol-3-yl)amino]carbonyl}-1-methyl-1H-pyrrol-3-yl)amino]carbonyl}-1-methyl-1H-pyrrol-3-yl)-4-[(2-bromoacryloyl)amino]-1-methyl-1H-pyrrole-2-carboxamide hydrochloride] the “Cytotoxicity (percentage of growth inhibition) in BSO pretreated cells in respect to BSO-untreated ones” value ([1]; A2780) was “significantly decreased”, the inhibition at 0.3 µg/mL ([1]; Homo sapiens, A2780, A2780, 300 ng/ml, no BSO) was 43 ± 2.5% and the inhibition at 1 µg/mL ([1]; Homo sapiens, A2780, A2780, 1000 ng/ml, no BSO) was 64.5 ± 14.5%. The inhibition at 3 µg/mL ([1]; Homo sapiens, A2780, read-out: Growth inhibition %, A2780, 3000 ng/ml, BSO 0.1 mM 24 h before and during treatment) was 38%, the inhibition at 3 µg/mL ([1]; Homo sapiens, A2780, read-out: Growth inhibition %, A2780, 3000 ng/ml, no BSO) was 77.5% and the IC50 [3] was 0.00049 µg/mL. For the same molecule, the “Apoptotic effect (percentage of cells with apoptotic morphology) in BSO pretreated cells in respect to BSO-untreated ones” value ([2]; A2780) was “significantly decreased”, the Apoptosis % ([2]; A2780, 300 ng/ml, no BSO) was 17.5 ± 6.5% and the Apoptosis % ([2]; A2780, 1000 ng/ml, no BSO) was 49.5 ± 15.5%. The Apoptosis % ([2]; A2780, 3000 ng/ml, BSO 0.1 mM 24 h before and during treatment) was 11.5%, the Apoptosis % ([2]; A2780, 3000 ng/ml, no BSO, hydrochloride) was 74.5% and 74.5 ± 15.5% and the IC50 [4, 6] was 0.00162 µg/mL.

With `Cn1cc(NC(=O)c2cc(NC(=O)c3cc(NC(=O)c4ccc(N(CCCl)CCCl)cc4)cn3C)cn2C)cc1C(=O)NCCC(=N)N` [Tallimustine, 3-[1-methyl-4-[1-methyl-4-[1-methyl-4-[1-methyl-4-[N,N-bis(2-chloroethyl)amino]benzenecarboxamindo]pyrrole-2-carboxamido]pyrrole-2-carboxamido]pyrrole-2-carboxamido]propionamidine] the IC50 [3] was 0.0274 µg/mL (≈ 0.0393 µM), the “Cytotoxicity on L1210/L-PAM cells in respect to L1210 cells” value [3] was “comparable” and the IC50 ([4]; L1210, 48 h) was 0.0225 µg/mL (≈ 0.0323 µM).

From patent US7030089B2 (priority 2000, dated 2006)
